In test [1] the target is T1, Recombinant human c-Cbl (aa 47-435) (Homo sapiens, UniProt P22681).
T1 sequence (P22681 47-435): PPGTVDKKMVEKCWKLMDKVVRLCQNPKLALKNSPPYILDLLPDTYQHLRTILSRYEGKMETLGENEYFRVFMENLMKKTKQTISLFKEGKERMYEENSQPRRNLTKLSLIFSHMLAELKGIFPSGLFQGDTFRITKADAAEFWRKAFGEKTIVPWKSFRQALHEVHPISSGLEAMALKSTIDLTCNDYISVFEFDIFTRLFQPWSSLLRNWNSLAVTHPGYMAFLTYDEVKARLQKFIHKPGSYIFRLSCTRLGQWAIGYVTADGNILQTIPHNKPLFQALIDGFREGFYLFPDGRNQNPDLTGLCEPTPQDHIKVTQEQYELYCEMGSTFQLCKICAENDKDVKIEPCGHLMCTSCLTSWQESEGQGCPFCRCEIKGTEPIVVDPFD
The test is described as follows: c-Cbl Biochemical Assay (TR-FRET). Conditions: hc-Cbl Biochemical Assay (TR-FRET); read-out: TR-FRET hcCbl IC50.

The target of test [2] is Recombinant human Cbl-b (aa 36-427) (Homo sapiens, UniProt Q13191). The test is described as follows: Cbl-b Biochemical Assay (TR-FRET). The conditions noted are these: read-out: TR-FRET hCbl-b IC50.
Sequence of Recombinant human Cbl-b (aa 36-427) (Q13191 36-427): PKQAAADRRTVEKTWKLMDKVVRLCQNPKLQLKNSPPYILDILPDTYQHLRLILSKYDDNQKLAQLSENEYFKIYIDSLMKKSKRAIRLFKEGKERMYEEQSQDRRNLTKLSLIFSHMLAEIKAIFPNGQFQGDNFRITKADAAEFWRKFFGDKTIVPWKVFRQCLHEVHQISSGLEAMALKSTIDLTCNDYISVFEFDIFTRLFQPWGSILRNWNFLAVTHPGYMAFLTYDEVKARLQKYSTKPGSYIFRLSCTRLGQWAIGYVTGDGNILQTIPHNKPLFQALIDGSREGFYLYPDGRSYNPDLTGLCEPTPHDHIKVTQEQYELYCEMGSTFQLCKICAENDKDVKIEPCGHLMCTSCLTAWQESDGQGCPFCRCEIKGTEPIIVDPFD
For test [3], the system named is Jurkat (clone E6-1) cells with NFAT luciferase reporter. The test is described as follows: Jurkat reporter assay (NFAT Luciferase). In kind it is cell-based. Conditions: Homo sapiens; Jurkat NFAT luciferase reporter cells, anti-CD3 stimulation, 6 hr; read-out: Jurkat NFAT EC50. For orientation: In a reporter assay the amount or activity of a reporter protein is the signal.

Regarding `C[C@H]1CCCN(Cc2cc(C(F)(F)F)c3oc(-c4cccc(-c5ccc(C#N)cc5-c5nncn5C)c4)nc3c2)C1` [AQ-6, (S)-2-(4-Methyl-4H-1,2,4-triazol-3-yl)-3′-(5-((3-methylpiperidin-1-yl)methyl)-7-(trifluoromethyl)benzo[d]oxazol-2-yl)-[1,1′-biphenyl]-4-carbonitrile], the IC50 (commonly the point on the concentration scale where inhibition reaches its midpoint) in test [1] is 1000 to 10000 nM; in test [2], < 200 nM. Besides, the EC50 (commonly the concentration giving half of the maximal effect) in test [3] was 200 to 1000 nM.

Turning to `C[C@H](Cc1nncn1C)c1cccc(-c2nc3ccc(Br)c(C(F)(F)F)c3[nH]2)c1` [AV-9, (R)-6-Bromo-2-(3-(1-(4-methyl-4H-1,2,4-triazol-3-yl)propan-2-yl)phenyl)-7-(trifluoromethyl)-1H-benzo[d]imidazole], the IC50 lay in the range of 10000 to 50000 nM in test [1] and 200 to 1000 nM in test [2]. Moreover, the EC50 in test [3] is 1000 to 10000 nM.

Regarding `Cn1cnnc1-c1cc(F)ccc1-c1cccc(-c2nc3cc(CO)cc(C(F)(F)F)c3[nH]2)c1` [BJ-1, (2-(4′-Fluoro-2′-(4-methyl-4H-1,2,4-triazol-3-yl)-[1,1′-biphenyl]-3-yl)-7-(trifluoromethyl)-1H-benzo[d]imidazol-5-yl)methanol], the IC50 in test [1] is 1000 to 10000 nM; in test [2] it was < 200 nM. The EC50 in test [3] lay within 1000 to 10000 nM.

Regarding `Cn1cnnc1-c1cc(F)ccc1-c1cccc(-c2nc3cc(CN[C@@H]4CCC[C@H]4O)cc(C(F)(F)F)c3[nH]2)c1` [BK-2, (1R,2R)-2-(((2-(4′-Fluoro-2′-(4-methyl-4H-1,2,4-triazol-3-yl)-[1,1′-biphenyl]-3-yl)-7-(trifluoromethyl)-1H-benzo[d]imidazol-5-yl)methyl)amino)cyclopentan-1-ol], the IC50 in test [1] is 1000 to 10000 nM; in test [2] it was < 200 nM. Moreover, the EC50 in test [3] lay in the range of 1000 to 10000 nM.

Take `C[C@@H]1CN(Cc2cc(C(F)(F)F)c3[nH]c(-c4cccc(-c5ccc(F)cc5-c5nncn5C)c4)nc3c2)CCO1` [BL-2, (R)-4-((2-(4′-Fluoro-2′-(4-methyl-4H-1,2,4-triazol-3-yl)-[1,1′-biphenyl]-3-yl)-7-(trifluoromethyl)-1H-benzo[d]imidazol-5-yl)methyl)-2-methylmorpholine]: the figures for the IC50 in test [1] and in test [2] were 1000 to 10000 nM and < 200 nM, respectively. Also, the concentration for a half-maximal effect (EC50) in test [3] lay in the range of 1000 to 10000 nM.

Regarding `Cn1cnnc1-c1cc(F)ccc1-c1cccc(-c2nc3cc(CN[C@@H]4CCC[C@@H]4O)cc(C(F)(F)F)c3[nH]2)c1` [BM-2, (1S,2R)-2-(((2-(4′-Fluoro-2′-(4-methyl-4H-1,2,4-triazol-3-yl)-[1,1′-biphenyl]-3-yl)-7-(trifluoromethyl)-1H-benzo[d]imidazol-5-yl)methyl)amino)cyclopentan-1-ol], the IC50 was 1000 to 10000 nM in test [1] and < 200 nM in test [2]. For the same molecule, the EC50 in test [3] fell in the range of 200 to 1000 nM.

Turning to `Cn1cnnc1-c1cc(F)ccc1-c1cccc(-c2nc3cc(CN[C@H]4CCC[C@@H]4O)cc(C(F)(F)F)c3[nH]2)c1` [BN-2, (1S,2S)-2-(((2-(4′-Fluoro-2′-(4-methyl-4H-1,2,4-triazol-3-yl)-[1,1′-biphenyl]-3-yl)-7-(trifluoromethyl)-1H-benzo[d]imidazol-5-yl)methyl)amino)cyclopentan-1-ol], the 50% inhibitory concentration (IC50) in test [1] is 1000 to 10000 nM; in test [2], < 200 nM. In addition, the 50% effective concentration (EC50) in test [3] fell in the range of 200 to 1000 nM.

For the molecule `C[C@H]1CCCN(Cc2cc(C(F)(F)F)c3[nH]c(-c4cccc(-c5ccc(F)cc5-c5nncn5C)c4)nc3c2)C1` [BO-2, (S)-2-(4′-Fluoro-2′-(4-methyl-4H-1,2,4-triazol-3-yl)-[1,1′-biphenyl]-3-yl)-5-((3-methylpiperidin-1-yl)methyl)-7-(trifluoromethyl)-1H-benzo[d]imidazole], the figures for the IC50 in test [1] and in test [2] were 1000 to 10000 nM and < 200 nM, respectively. Also, the concentration giving a half-maximal response (EC50) in test [3] is 200 to 1000 nM.

As to `Cn1cnnc1-c1cc(F)ccc1-c1cccc(-c2nc3cc(CNCC4(O)CCC4)cc(C(F)(F)F)c3[nH]2)c1` [BP-1, 1-((((2-(4′-Fluoro-2′-(4-methyl-4H-1,2,4-triazol-3-yl)-[1,1′-biphenyl]-3-yl)-7-(trifluoromethyl)-1H-benzo[d]imidazol-5-yl)methyl)amino)methyl)cyclobutan-1-ol], the results for the IC50 in test [1] and in test [2] were 1000 to 10000 nM and < 200 nM, respectively. For the same molecule, in test [3], the EC50 was 200 to 1000 nM.

Regarding `Cn1cnnc1-c1cc(F)ccc1-c1cccc(-c2nc3cc(CNCC4(O)COC4)cc(C(F)(F)F)c3[nH]2)c1` [BQ-1, 3-((((2-(4′-Fluoro-2′-(4-methyl-4H-1,2,4-triazol-3-yl)-[1,1′-biphenyl]-3-yl)-7-(trifluoromethyl)-1H-benzo[d]imidazol-5-yl)methyl)amino)methyl)oxetan-3-ol], the IC50 in test [1] was 1000 to 10000 nM; in test [2], < 200 nM. Further, the EC50 in test [3] lay in the range of 200 to 1000 nM.

For the molecule `Cn1cnnc1-c1cc(F)ccc1-c1cccc(-c2nc3cc(CN4CC(C)(O)C4)cc(C(F)(F)F)c3[nH]2)c1` [BR-1, 1-((2-(4′-Fluoro-2′-(4-methyl-4H-1,2,4-triazol-3-yl)-[1,1′-biphenyl]-3-yl)-7-(trifluoromethyl)-1H-benzo[d]imidazol-5-yl)methyl)-3-methylazetidin-3-ol], the IC50 in test [1] is 1000 to 10000 nM; in test [2], < 200 nM. Further, the EC50 in test [3] fell in the range of 1000 to 10000 nM.

`Cn1cnnc1-c1cc(F)ccc1-c1cccc(-c2nc3cc(CNCC(C)(C)O)cc(C(F)(F)F)c3[nH]2)c1` [BT-1, 1-(((2-(4′-Fluoro-2′-(4-methyl-4H-1,2,4-triazol-3-yl)-[1,1′-biphenyl]-3-yl)-7-(trifluoromethyl)-1H-benzo[d]imidazol-5-yl)methyl)amino)-2-methylpropan-2-ol]: the figures for the IC50 in test [1] and in test [2] were 1000 to 10000 nM and < 200 nM, respectively. The EC50 in test [3] was in the range of 200 to 1000 nM.

For `Cn1cnnc1-c1cc(F)ccc1-c1cccc(-c2nc3cc(CN4CCC5(CC4)CC5)cc(C(F)(F)F)c3[nH]2)c1` [BU-1, 5-((6-Azaspiro[2.5]octan-6-yl)methyl)-2-(4′-fluoro-2′-(4-methyl-4H-1,2,4-triazol-3-yl)-[1,1′-biphenyl]-3-yl)-7-(trifluoromethyl)-1H-benzo[d]imidazole], the figures for the IC50 in test [1] and in test [2] were 1000 to 10000 nM and < 200 nM, respectively. Besides, in test [3], the EC50 was in the range of 200 to 1000 nM.

As to `Cn1cnnc1-c1cc(F)ccc1-c1cccc(-c2nc3cc(CNCC4(O)CC4)cc(C(F)(F)F)c3[nH]2)c1` [BV-1, 1-((((2-(4′-Fluoro-2′-(4-methyl-4H-1,2,4-triazol-3-yl)-[1,1′-biphenyl]-3-yl)-7-(trifluoromethyl)-1H-benzo[d]imidazol-5-yl)methyl)amino)methyl)cyclopropan-1-ol], the IC50 in test [1] is 1000 to 10000 nM; in test [2], < 200 nM. Also, the EC50 in test [3] lay within 200 to 1000 nM.

For `Cn1cnnc1-c1cc(F)ccc1-c1cccc(-c2nc3cc(CN[C@@H]4CCC[C@@H]4O)ccc3[nH]2)c1` [BY-1, (1S,2R)-2-(((2-(4′-Fluoro-2′-(4-methyl-4H-1,2,4-triazol-3-yl)-[1,1′-biphenyl]-3-yl)-1H-benzo[d]imidazol-5-yl)methyl)amino)cyclopentan-1-ol], the figures for the IC50 in test [1] and in test [2] were 1000 to 10000 nM and < 200 nM, respectively. In test [3], the EC50 is 1000 to 10000 nM.

On to `CN1CCC[C@H](NCc2cc(C(F)(F)F)c3[nH]c(-c4cccc(-c5ccc(F)cc5-c5nncn5C)c4)nc3c2)C1=O` [CC-2, (S)-3-(((2-(4′-Fluoro-2′-(4-methyl-4H-1,2,4-triazol-3-yl)-[1,1′-biphenyl]-3-yl)-7-(trifluoromethyl)-1H-benzo[d]imidazol-5-yl)methyl)amino)-1-methylpiperidin-2-one, formic Acid], for which the values for the IC50 in test [1] and in test [2] were 1000 to 10000 nM and < 200 nM, respectively. Moreover, in test [3], the EC50 is 1000 to 10000 nM.

Consider `Cn1cnnc1-c1cc(F)ccc1-c1cccc(-c2nc3cc(CNCC(C)(C)F)cc(C(F)(F)F)c3[nH]2)c1` [CD-2, 2-Fluoro-N-((2-(4′-fluoro-2′-(4-methyl-4H-1,2,4-triazol-3-yl)-[1,1′-biphenyl]-3-yl)-7-(trifluoromethyl)-1H-benzo[d]imidazol-5-yl)methyl)-2-methylpropan-1-amine, Formic Acid], for which the IC50 was 1000 to 10000 nM in test [1] and < 200 nM in test [2]. In addition, the EC50 in test [3] fell in the range of 200 to 1000 nM.

With `Cn1cnnc1-c1cc(F)ccc1-c1cccc(-c2nc3cc(CNCC4(O)CCCC4)cc(C(F)(F)F)c3[nH]2)c1` [CJ-1, 1-((((2-(4′-Fluoro-2′-(4-methyl-4H-1,2,4-triazol-3-yl)-[1,1′-biphenyl]-3-yl)-7-(trifluoromethyl)-1H-benzo[d]imidazol-5-yl)methyl)amino)methyl)cyclopentan-1-ol], the IC50 in test [1] and in test [2] was < 200 nM each time. For the same molecule, in test [3], the EC50 was < 200 nM.

Consider `Cn1cnnc1-c1cc(F)ccc1-c1cccc(-c2nc3cc(CNCC4(O)CC(F)(F)C4)cc(C(F)(F)F)c3[nH]2)c1` [CK-2, 3,3-Difluoro-1-((((2-(4′-fluoro-2′-(4-methyl-4H-1,2,4-triazol-3-yl)-[1,1′-biphenyl]-3-yl)-7-(trifluoromethyl)-1H-benzo[d]imidazol-5-yl)methyl)amino)methyl)cyclobutan-1-ol], for which the half-maximal inhibitory concentration (IC50) in test [1] and in test [2] was < 200 nM in each case. For the same molecule, the EC50 in test [3] is < 200 nM.

On to `Cn1cnnc1-c1cc(C#N)ccc1-c1cccc(-c2nc3cc(CO)cc(C(F)(F)F)c3o2)c1` [CL-2, 3′-(5-(Hydroxymethyl)-7-(trifluoromethyl)benzo[d]oxazol-2-yl)-2-(4-methyl-4H-1,2,4-triazol-3-yl)-[1,1′-biphenyl]-4-carbonitrile], for which the values for the half-inhibitory concentration (IC50) in test [1] and in test [2] were 200 to 1000 nM and < 200 nM, respectively. Moreover, in test [3], the EC50 was 1000 to 10000 nM.

For the origin of these results see patent US20250163038A1, “CBL-B MODULATORS AND USES THEREOF” (Nimbus Clio, Inc., priority 2021, published 2025).
